Laboratory results as given in US9840512B2, “Antidiabetic bicyclic compounds” (Merck Sharp & Dohme Corp., priority 2013, dated 2017).

The compounds below were run against human GPR40 (Homo sapiens, UniProt O14842) (assay: Inositol Phosphate Turnover (IP1) Assay 2). Conditions: HEK cells stably expressing human GPR40, Table 2, read-out: Human IP1.
Type: cell-based
Design: expressed in transfected cells
Method: Human and mouse GPR40 stable cell-lines were generated in CHO cells stably expressing NFAT BLA (Beta-lactamase). A human GPR40 stable cell-line was generated in HEK cells stably expressing the aequorin expressing reporter. The expression plasmids were transfected using lipofectamine (Life Technologies) following manufacturer's instructions. Stable cell-lines were generated following drug selection.
The assay is performed in 384-well format. HEK cells stably expressing human GPR40 are plated at 15,000 cells per well in growth medium (DMEM/10% fetal calf serum). Cell plates are then incubated 16 hours at 37 degrees in a 5% CO2 incubator.
Measurement of Inositol Phosphate Turnover (IP1) is performed using the CisBio IP-One kit (Part number 62IPAPEB). After the 16 hour incubation, the cells are washed with HEPES buffer and 10 ul of stimulation buffer (prepared as described in the kit) is added to each well. In a separate plate, compounds are diluted in DMSO (400-fold over the final concentration in the assay well) and 25 nl is acoustically transferred to the appropriate well in the assay cell plate. The plates are then incubated for 60 minutes at 37 degrees. 10 ul of detection buffer (also prepared as described in the IP-One kit) is added to each well and the plates are incubated for 60 minutes in the dark. The plates are then read in a Perkin Elmer EnVision or equivalent reader able to measure FRET.

Sequence of human GPR40 (O14842 whole entry): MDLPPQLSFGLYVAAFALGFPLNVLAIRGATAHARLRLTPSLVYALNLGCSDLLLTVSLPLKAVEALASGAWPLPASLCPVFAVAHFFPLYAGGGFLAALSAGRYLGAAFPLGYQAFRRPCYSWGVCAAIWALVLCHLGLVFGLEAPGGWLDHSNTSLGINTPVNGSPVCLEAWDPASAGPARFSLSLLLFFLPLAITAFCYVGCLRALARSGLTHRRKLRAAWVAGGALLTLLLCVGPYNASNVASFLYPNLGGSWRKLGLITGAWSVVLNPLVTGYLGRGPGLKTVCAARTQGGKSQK

| Compound | EC50 [nM] |
| --- | --- |
| COc1ccc(F)c(-c2ccc(C3CCc4ccc([C@H](C5CC5)[C@H](C)C(=O)O)cc4O3)nc2)c1 (single isomer, unassigned) [Example 97a] | 0.9 |
| COc1ccc(F)c(-c2ccc(C3CCc4ccc([C@H](C5CC5)[C@@H](C)C(=O)O)cc4O3)nc2)c1 (single isomer, unassigned) [Example 97b] | 30 |
| COc1ccc(F)c(-c2ccc(C3CCc4ccc([C@H](C5CC5)[C@H](C)C(=O)O)cc4O3)nc2)c1 (single isomer, unassigned) [Example 97c] | 2.9 |
| COc1ccc(F)c(-c2ccc(C3CCc4ccc([C@H](C5CC5)[C@@H](C)C(=O)O)cc4O3)nc2)c1 (single isomer, unassigned) [Example 97d] | 43 |
| COc1ccc(F)c(-c2ccc(C3CCc4ccc(C(CC(=O)O)C5CC5)cc4O3)cc2C2=CCCC2(C)C)c1 (single isomer, unassigned) [Example 101a] | 662 |
| COc1ccc(F)c(-c2ccc(C3CCc4ccc(C(CC(=O)O)C5CC5)cc4O3)cc2C2=CCCC2(C)C)c1 (single isomer, unassigned) [Example 101b] | 704 |
| COc1ccc(F)c(-c2ccc(C3CCc4ccc(C(CC(=O)O)C5CC5)cc4O3)cc2C2=CCCC2(C)C)c1 (single isomer, unassigned) [Example 101c] | 58 |
| COc1ccc(F)c(-c2ccc(C3CCc4ccc(C(CC(=O)O)C5CC5)cc4O3)cc2C2=CCCC2(C)C)c1 (single isomer, unassigned) [Example 101d] | 90 |
| COc1ccc(F)c(-c2cnc(C3CCc4ccc([C@H](C5CC5)[C@H](C)C(=O)O)cc4O3)c(F)c2)c1 (single isomer, unassigned) [Example 105a] | 0.82 |
| COc1ccc(F)c(-c2cnc(C3CCc4ccc([C@H](C5CC5)[C@H](C)C(=O)O)cc4O3)c(F)c2)c1 (single isomer, unassigned) [Example 105b] | 0.79 |
| COc1ccc(F)c(-c2cnc(C3CCc4ccc([C@H](C5CC5)[C@H](C)C(=O)O)cc4O3)cc2OC)c1 (single isomer, unassigned) [Example 108a] | 263 |
| COc1ccc(F)c(-c2cnc(C3CCc4ccc([C@H](C5CC5)[C@H](C)C(=O)O)cc4O3)cc2OC)c1 (single isomer, unassigned) [Example 108b] | 5.8 |
| COc1cc(-c2ccc(C3CCc4ccc([C@H](C5CC5)[C@H](C)C(=O)O)cc4O3)c(F)c2)c(F)cn1 (single isomer, unassigned) [Example 109a] | 0.17 |
| COc1cc(-c2ccc(C3CCc4ccc([C@H](C5CC5)[C@H](C)C(=O)O)cc4O3)c(F)c2)c(F)cn1 (single isomer, unassigned) [Example 109b] | 1.2 |
| COc1cc(-c2cnc(C3CCc4ccc([C@H](C5CC5)[C@H](C)C(=O)O)cc4O3)c(F)c2)c(F)cn1 (single isomer, unassigned) [Example 110a] | 6.8 |
| COc1cc(-c2cnc(C3CCc4ccc([C@H](C5CC5)[C@H](C)C(=O)O)cc4O3)c(F)c2)c(F)cn1 (single isomer, unassigned) [Example 110b] | 1.6 |
| COc1ccc(F)c(-c2ccc(C3CCc4ccc([C@H](C5CC5)[C@H](C)C(=O)O)cc4O3)nc2C(F)(F)F)c1 (single isomer, unassigned) [Example 111a] | 6 |
| COc1ccc(F)c(-c2ccc(C3CCc4ccc([C@H](C5CC5)[C@H](C)C(=O)O)cc4O3)nc2C(F)(F)F)c1 (single isomer, unassigned) [Example 111b] | 25 |
| COc1cc(-c2ccc(C3CCc4ccc([C@H](C5CC5)[C@H](C)C(=O)O)cc4O3)nc2)c(F)cn1 (single isomer, unassigned) [Example 112a] | 0.17 |
| COc1cc(-c2ccc(C3CCc4ccc([C@H](C5CC5)[C@H](C)C(=O)O)cc4O3)nc2)c(F)cn1 (single isomer, unassigned) [Example 112b] | 0.92 |
| COc1ccc(F)c(-c2cc(F)c(C3CCc4ccc([C@H](C5CC5)[C@H](C)C(=O)O)cc4O3)nc2C)c1 (single isomer, unassigned) [Example 113a] | 3.9 |
| COc1ccc(F)c(-c2cc(F)c(C3CCc4ccc([C@H](C5CC5)[C@H](C)C(=O)O)cc4O3)nc2C)c1 (single isomer, unassigned) [Example 113b] | 14 |
| COc1ccc(F)c(-c2cnc(C3CCc4ccc([C@H](C5CC5)[C@H](C)C(=O)O)cc4O3)c(C)c2)c1 (single isomer, unassigned) [Example 115a] | 4.2 |
| COc1ccc(F)c(-c2cnc(C3CCc4ccc([C@H](C5CC5)[C@H](C)C(=O)O)cc4O3)c(C)c2)c1 (single isomer, unassigned) [Example 115b] | 17.4 |

| Compound | EC50 [nM] |
| --- | --- |
| COc1cc(-c2ccc(C3CCc4ccc([C@H](C5CC5)[C@H](C)C(=O)O)cc4O3)cc2)c(F)cn1 (single isomer, unassigned) [Example 117a] | 0.89 |
| COc1cc(-c2ccc(C3CCc4ccc([C@H](C5CC5)[C@H](C)C(=O)O)cc4O3)cc2)c(F)cn1 (single isomer, unassigned) [Example 117b] | 0.17 |
| COc1cc(-c2ccc(C3CCc4ccc([C@H](C5CC5)[C@H](C)C(=O)O)cc4O3)cc2)ccn1 (single isomer, unassigned) [Example 118a] | 1.6 |
| COc1cc(-c2ccc(C3CCc4ccc([C@H](C5CC5)[C@H](C)C(=O)O)cc4O3)cc2)ccn1 (single isomer, unassigned) [Example 118b] | 5.9 |
| COc1cc(-c2ccc(C3CCc4ccc([C@H](C5CC5)[C@H](C)C(=O)O)cc4O3)nc2C)ccn1 (single isomer, unassigned) [Example 119a] | 4.1 |
| COc1cc(-c2ccc(C3CCc4ccc([C@H](C5CC5)[C@H](C)C(=O)O)cc4O3)nc2C)ccn1 (single isomer, unassigned) [Example 119b] | 7.8 |
| COc1cc(-c2ccc(C3CCc4ccc([C@H](C5CC5)[C@H](C)C(=O)O)cc4O3)nc2)ccn1 (single isomer, unassigned) [Example 120a] | 4.4 |
| COc1cc(-c2ccc(C3CCc4ccc([C@H](C5CC5)[C@H](C)C(=O)O)cc4O3)nc2)ccn1 (single isomer, unassigned) [Example 120b] | 1.9 |
| COc1ccc(F)c(-c2ccc(C3CCc4ccc([C@@H](CC(=O)O)C5CC5)cc4O3)cn2)c1 (single isomer, unassigned) [Example 122a] | 88 |
| COc1ccc(F)c(-c2ccc(C3CCc4ccc([C@@H](CC(=O)O)C5CC5)cc4O3)cn2)c1 (single isomer, unassigned) [Example 122b] | 244 |
| COc1ccc(F)c(-c2cnc(C3CCc4ccc([C@H](C5CC5)C(C)C(=O)O)cc4O3)nc2)c1 (single isomer, unassigned) [Example 124a] | 51 |
| COc1ccc(F)c(-c2cnc(C3CCc4ccc([C@H](C5CC5)C(C)C(=O)O)cc4O3)nc2)c1 (single isomer, unassigned) [Example 124b] | 70 |
| COc1ccc(F)c(-c2ccc(C3CCc4ccc([C@@H](CC(=O)O)C5CC5)cc4O3)cc2C(OC)C(C)(C)C)c1 (single isomer, unassigned) [Example 125a] | 7.3 |
| COc1ccc(F)c(-c2ccc(C3CCc4ccc([C@@H](CC(=O)O)C5CC5)cc4O3)cc2C(OC)C(C)(C)C)c1 (single isomer, unassigned) [Example 125b] | 8.6 |
| COc1ccc(F)c(-c2ccc(C3CCc4ccc([C@@H](CC(=O)O)C5CC5)cc4O3)cc2C(OC)C(C)(C)C)c1 (single isomer, unassigned) [Example 125c] | 235 |
| COc1ccc(F)c(-c2ccc(C3CCc4ccc([C@@H](CC(=O)O)C5CC5)cc4O3)cc2C(OC)C(C)(C)C)c1 (single isomer, unassigned) [Example 125d] | 256 |
| COc1ccc(F)c(-c2ccc(C3CCc4ccc([C@H](C5CC5)[C@H](C)C(=O)O)cc4O3)nc2C(OC)C(C)(C)C)c1 (single isomer, unassigned) [Example 135a] | 0.8 |
| COc1ccc(F)c(-c2ccc(C3CCc4ccc([C@H](C5CC5)[C@H](C)C(=O)O)cc4O3)nc2C(OC)C(C)(C)C)c1 (single isomer, unassigned) [Example 135b] | 21 |
| COc1ccc(F)c(-c2ccc(C3CCc4ccc([C@H](C5CC5)[C@H](C)C(=O)O)cc4O3)nc2C(OC)C(C)(C)C)c1 (single isomer, unassigned) [Example 135c] | 2.8 |
| COc1ccc(F)c(-c2ccc(C3CCc4ccc([C@H](C5CC5)[C@H](C)C(=O)O)cc4O3)nc2C(OC)C(C)(C)C)c1 (single isomer, unassigned) [Example 135d] | 44 |
| COc1ccc(F)c(-c2ccc(C3CCc4ccc(C(C)CC(=O)O)cc4O3)cc2)c1 (single isomer, unassigned) [Example 138, (S or R)-3-((R or S)-2-(2′-fluoro-5′-methoxy-[1,1′-biphenyl]-4-yl)chroman-7-yl)butanoic acid] | 1200 |
| COc1ccc(F)c(-c2ccc(C3CCc4ccc(C(C)CC(=O)O)cc4O3)cc2)c1 (single isomer, unassigned) [Example 139] | 116 |
| COc1ccc(F)c(-c2ccc(C3CCc4ccc(C(C)CC(=O)O)cc4O3)cc2)c1 (single isomer, unassigned) [Example 140] | 1230 |
